Measurements from paper PMC6155426, “Metabolite Profiling of Eastern Teaberry (Gaultheria procumbens L.) Lipophilic Leaf Extracts with Hyaluronidase and Lipoxygenase Inhibitory Activity” (Molecules : A Journal of Synthetic Chemistry and Natural …, 2017).
Like-named read-outs stand apart in the source and are kept apart here.

Tests used:
[1] = target: T1, bovine testis hyaluronidase (Bos taurus, UniProt Q2YDK3); test: Hyaluronidase inhibition test (turbidimetric, 96-well); assay type: biochemical; conditions: for IC50: read-out: HYAL inhibitory activity (IC50) (converted)
T1 construct: purchased Sigma-Aldrich; host or cells: bovine testis (tissue-derived preparation)
T1 sequence (Q2YDK3 36-553): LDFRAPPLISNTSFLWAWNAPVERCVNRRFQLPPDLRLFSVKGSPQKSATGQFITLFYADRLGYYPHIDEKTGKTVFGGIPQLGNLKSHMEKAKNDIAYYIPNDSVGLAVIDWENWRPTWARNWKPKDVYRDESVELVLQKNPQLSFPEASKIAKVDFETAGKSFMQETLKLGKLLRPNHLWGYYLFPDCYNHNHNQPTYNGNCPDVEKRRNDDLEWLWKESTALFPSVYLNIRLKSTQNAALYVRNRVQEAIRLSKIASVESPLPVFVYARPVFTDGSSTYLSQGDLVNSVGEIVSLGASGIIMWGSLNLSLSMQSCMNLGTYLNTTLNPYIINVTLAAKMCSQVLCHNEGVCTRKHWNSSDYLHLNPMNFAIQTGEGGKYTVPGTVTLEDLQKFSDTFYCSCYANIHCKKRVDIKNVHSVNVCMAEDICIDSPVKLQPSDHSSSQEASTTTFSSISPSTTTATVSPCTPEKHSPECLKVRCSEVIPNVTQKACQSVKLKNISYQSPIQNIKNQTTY
Description: (§1) Heparin sodium salt was purchased from WZF Polfa (Warsaw, Poland). HPLC grade solvents (methanol and orthophosphoric acid) were from Avantor Performance Materials (Avantor PM, Gliwice, Poland). All other chemicals and solvents were of analytical grade and supplied by Avantor PM. In all analyses redistilled water was used. Enzymatic tests were done using 96-well plates and monitored using a Synergy 4 microplate reader (BioTek, Winooski, VT, USA). Column chromatography (CC) was performed on silica gel 60 G (0.2–0.5 mm, Macherey-Nagel, Düren, Germany). Analytical TLC was carried out on silica gel 60 G precoated plates (Merck, Warsaw, Poland) using horizontal DC chambers (Chromdes, Lublin, Poland). Flash chromatography was carried out on an Interchim puriFlash^TM 430evo chromatograph (Interchim Inc., San Pedro, CA, USA) equipped with a UV-Vis detector scanning in the wavelength range of 200–600 nm, a fraction collector, and Interchim puriFlash Silica HC (50 µm, 72 mm × 15 mm, 4 g) preparative columns. The flow rate was 7 mL/min. The mobile phase consisted of petroleum ether (A), chloroform (B), and methanol (C). A linear gradient system was used for elution (A:B:C): 0–9 min, 75:25:0 (v/v/v); 9–10 min, 49:49:2; 10–15 min, 45:45:10. Before injection, samples were dissolved in chloroform. Melting points (uncorrected) were determined on a Boetius apparatus (Carl Zeiss, Jena, Germany). UV-Vis spectra, before and after adding ionization and complexation reagents, were recorded at 25 °C on a UV-1601 Spectrophotometer (Rayleigh, Beijing, China) in methanol, according to Mabry et al.. ESI-MS spectra were measured on a UHPLC-3000 RS chromatograph (Dionex, Dreieich, Germany) equipped with a dual low-pressure gradient pump, an autosampler, a diode array detector, and an AmaZon SL ion trap mass spectrometer with an ESI interface (Bruker Daltonik, Bremen, Germany). IR spectra were recorded in KBr on a Bruker Alpha FT-IR spectrometer (Bruker Daltonik). Optical rotation ( [α]D20 ) was measured in chloroform on a PolAAr 3001 polarimeter (Optical Activity, Ramsey, UK). ^1H-NMR, ^13C-NMR, ^1H-^1H COSY, HMQC, and HMBC spectra were recorded at 25 °C on a Bruker Daltonik III 600 MHz spectrometer in CDCl3 and with TMS as the internal standard.
Inhibitory activity of the tested analytes (extracts and individual compounds) was determined by turbidimetric method adapted for 96-well microtiter plates as described previously. The protocol was started by adding 20 μL of the tested analyte solution in monosodium phosphate buffer (pH = 7.0) to 40 μL of hyaluronidase solution (22.55 U/mL) in monosodium phosphate buffer (pH = 7.0) and the mixture was incubated at 37.0 ± 0.1 °C in the dark for 10 min. After this time 40 μL of hyaluronic acid solution (0.03%, w/v) in monosodium phosphate buffer (pH = 5.35) was added and the mixture was further incubated at 37.0 ± 0.1 °C in the dark for 45 min. Finally 300 μL of bovine serum albumin solution (0.1%, w/v) in sodium acetate buffer (pH = 3.75) was added to the mixture and incubated in room temperature for 10 min. Changes in turbidity were measured at 600 nm. […] At each level three independent experiments were carried out in duplicate. Heparin was used as a positive control. Activity of the tested analytes was calculated as inhibition percentage (% Inhibition) of hyaluronidase according to the Equation (1): (1) % Inhibition=100×(1−(AHA−AAN/AHA−AHYAL)), where AHA—absorbance of solution without the enzyme, AHYAL—absorbance of solution without the tested analyte (negative control), AAN—absorbance of solution with the tested analyte.

[2] = target: T2, lipoxygenase from soybean (Glycine max, UniProt P08170); test: Lipoxygenase inhibition test (spectrophotometric, 96-well); assay type: biochemical
T2 construct: purchased Sigma-Aldrich; host or cells: soybean (plant-derived preparation)
T2 sequence (P08170 1-839): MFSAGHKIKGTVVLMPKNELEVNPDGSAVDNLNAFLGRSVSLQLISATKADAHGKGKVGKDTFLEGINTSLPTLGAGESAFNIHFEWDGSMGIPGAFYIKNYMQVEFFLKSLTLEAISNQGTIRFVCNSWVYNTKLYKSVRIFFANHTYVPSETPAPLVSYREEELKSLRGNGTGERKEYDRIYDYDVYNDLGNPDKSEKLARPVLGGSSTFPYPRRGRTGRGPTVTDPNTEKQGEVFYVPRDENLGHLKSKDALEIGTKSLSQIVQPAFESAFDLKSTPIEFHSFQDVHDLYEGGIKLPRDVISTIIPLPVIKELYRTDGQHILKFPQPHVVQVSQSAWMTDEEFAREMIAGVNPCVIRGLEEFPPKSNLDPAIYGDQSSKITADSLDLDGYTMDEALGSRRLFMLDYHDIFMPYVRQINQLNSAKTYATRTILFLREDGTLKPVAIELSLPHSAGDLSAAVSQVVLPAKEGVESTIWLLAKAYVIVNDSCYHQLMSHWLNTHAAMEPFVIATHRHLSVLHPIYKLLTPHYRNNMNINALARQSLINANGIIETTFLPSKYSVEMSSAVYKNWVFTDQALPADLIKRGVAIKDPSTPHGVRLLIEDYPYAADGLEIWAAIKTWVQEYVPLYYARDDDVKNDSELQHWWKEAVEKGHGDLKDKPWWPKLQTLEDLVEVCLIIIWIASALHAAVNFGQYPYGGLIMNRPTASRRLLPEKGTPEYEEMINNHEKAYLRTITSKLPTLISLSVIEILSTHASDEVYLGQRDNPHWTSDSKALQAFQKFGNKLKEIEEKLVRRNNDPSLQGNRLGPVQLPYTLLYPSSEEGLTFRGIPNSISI
Description: as §1
Inhibitory activity of the tested analytes (extracts and individual compounds) was determined by a spectrophotometric method adjusted to a 96-well microtiter plates according to Granica et al.. The protocol was started by adding 50 μL of the tested analyte solution in sodium borate buffer (pH = 9.0), then 50 μL of linoleic acid solution (134 μM) was added, followed by 50 μL of lipoxygenase solution (167 U/mL) in sodium borate buffer (pH = 9.0). The reaction mixture was vigorously shaken and changes in absorbance were measured at 234 nm over a period of 15 min with 1 min intervals. […] At each level three independent experiments were carried out in duplicate. Indomethacin was used as a positive control. Activity of the tested analytes was calculated as inhibition percentage (% Inhibition) of lipoxygenase according to Equation (2): (2) % Inhibition=100×(1−(AAN−ALA/ALOX)), where AAN—absorbance of solution with the tested analyte, ALA—absorbance of solution without the enzyme, ALOX—absorbance of solution without the tested analyte (negative control). The absorbance value in the 10th minute of the reaction were used for the calculation.

[3] = tested 100−1000 μg/mL, hyaluronic acid substrate, 37 °C, mean ± SD (n = 3 × 2)
[4] = tested 50−1000 μg/mL, linoleic acid substrate, pH 9.0, mean ± SD (n = 3 × 2), read-out: LOX inhibitory activity (IC50) (converted)

Molecule	IC50 [1, 3] [µM]	IC50 [2, 4] [µM]	IC50 [2] [µM]	HYAL inhibitory activity (IC50) [1, 3] [µg/mL]	inhibitory activity towards hyaluronidase in the tested concentration range ([1]; tested concentration range 100−1000 μg/mL)
COc1cc2oc(-c3ccc(O)cc3)cc(=O)c2c(O)c1C [DS, 4′,5-dihydroxy-7-methoxy-6-methylflavone]	1570	1120	–	–	–
CC[C@H](CC[C@@H](C)[C@H]1CC[C@H]2[C@@H]3CC=C4C[C@@H](O)CC[C@]4(C)[C@H]3CC[C@]12C)C(C)C [β-SIT, β-sitosterol]	1650	1910	–	–	–
C[C@H]1[C@H](C)CC[C@]2(C(=O)O)CC[C@]3(C)C(=CC[C@@H]4[C@@]5(C)CC[C@H](O)C(C)(C)[C@@H]5CC[C@]43C)[C@H]12 [UA, ursolic acid]	832	–	1610	–	–
COC(=O)c1ccccc1 [BM, methyl benzoate]	5700	–	2750	–	–
COC(=O)c1ccccc1O [SM, methyl salicylate]	5220	2570	–	–	–
CC1(C)CC[C@]2(C(=O)O)CC[C@]3(C)C(=CC[C@@H]4[C@@]5(C)CC[C@H](O)C(C)(C)[C@@H]5CC[C@]43C)[C@@H]2C1 [OA, oleanolic acid]	–	–	2020	–	–
CC1=CC(=O)CC(C)(C)C1(O)C=CC(C)O [VO, (6S,9R)-6-hydroxy-3-oxo-α-ionol]	1590	540	–	–	–
COc1ccc2c(c1)c(CC(=O)O)c(C)n2C(=O)c1ccc(Cl)cc1 [IND, indomethacin, reference compound]	–	259	–	–	–
heparin [HP, reference compound]	–	–	–	366.24 ± 14.72	–
CCCCCCCCCCCCCCCCCCCCCC [DOC, docosane]	> 3220	2640	–	–	no inhibitory activity
COc1cc2oc(-c3ccc(O)cc3)c(OC)c(=O)c2c(O)c1C [DL, 4′,5-dihydroxy-3,7-dimethoxy-6-methylflavone]	1320	920	–	–	–
